This is an account of results in PubChem BioAssay (NCI).

Molecules are shown by their SMILES.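 Values below derive from 48-hour exposures of cells grown in 96-well plates, with endpoints linearly interpolated between the two concentrations bracketing the appropriate inhibition level. GI50 marks 50% less growth. TGI marks complete inhibition of growth.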 Some results are limits rather than exact numbers.

What all share (assay): NCI tumour cell line growth inhibition, 48 h
Assay [1] concerns DU-145 prostate.
In assay [2] the test system is HCC-2998 colon.
Assay [3] has as its system HOP-92 NSCLC.
Assay [4] relates to NCI-H460 lung.
In assay [5] the test system is NCI/ADR-RES ovarian.
Assay [6] has as its system OVCAR-8 ovarian.
Assay [7] deals with RPMI-8226 leukemia.
For assay [8], the system named is SK-MEL-2 melanoma.
The subject of assay [9] is SNB-19 CNS.
Assay [10] relates to U251 CNS.

Take `CC(C)Cc1ccc(C(C)C(=O)NCc2ccc(Cn3c(=O)sn(CCCI)c3=O)cc2)cc1` (stereo not given): the GI50 in [1] is 0.861 µM; in assay [2], 1.75 µM; in assay [3] it was 0.308 µM; in [4], 1.36 µM; in [5] it was 1.35 µM; in assay [6] it was 0.523 µM. For the same compound, the GI50 was 0.34 µM in assay [7], 1.34 µM in [8], 1.45 µM in assay [9] and 1.43 µM in assay [10]. In addition, the TGI came to 2.12 µM in assay [1]; 3.38 µM in assay [2]; 1.56 µM in [3]; 3.08 µM in [4]; 5.19 µM in [5]; 1.85 µM in [6]. In addition, the TGI stood at 2.2 µM in [7], 2.88 µM in assay [8], 2.78 µM in [9] and 2.89 µM in [10].
Take `Cc1ccccc1C(C(=O)NC1CCCCC1)N(C(=O)CNc1ncccc1F)c1cccc(F)c1` (stereo not given): the GI50 in assay [1] was greater than 100 µM; in [2], greater than 100 µM; in assay [3] it was 13.9 µM; in assay [4] it was greater than 100 µM; in [5], greater than 100 µM; in [6], 19 µM. Besides, the GI50 is greater than 100 µM in [7], 28.9 µM in [8], 17.2 µM in assay [9] and 27.6 µM in [10]. Besides, the TGI in [1] was greater than 100 µM; in assay [2], greater than 100 µM; in [3], 62.4 µM; in assay [4], greater than 100 µM; in [5], greater than 100 µM; in assay [6], greater than 100 µM. In addition, the TGI is greater than 100 µM in [7], greater than 90.3 µM in assay [8], greater than 87.3 µM in assay [9] and greater than 100 µM in assay [10].
On to `Cc1sc2c(c1C)C(c1ccc(Cl)cc1)=N[C@@H](CC(=O)NCCCN1CCN(C)CC1)c1nnc(C)n1-2`, for which the GI50 in [1] is greater than 100 µM; in assay [2], 2.55 µM; in assay [3], 0.032 µM; in assay [4] it was greater than 63.2 µM; in [5], greater than 100 µM; in [6] it was 4.96 µM. For the same compound, the GI50 in [7] is 0.0417 µM; in assay [8], greater than 44.6 µM; in assay [9] it was 0.987 µM; in [10] it was 8.88 µM. The TGI in assay [1] was greater than 100 µM; in [2], greater than 100 µM; in assay [3] it was greater than 25.2 µM; in [4], greater than 100 µM; in assay [5], greater than 100 µM; in assay [6] it was greater than 100 µM. Besides, the TGI was 5.38 µM in [7], greater than 100 µM in assay [8], greater than 100 µM in assay [9] and greater than 100 µM in [10].
Regarding `CN(C)Cc1c(C(=O)NCCOc2ccc(C(=O)NO)cc2)oc2ccccc12`, the GI50 in assay [1] was 0.225 µM; in assay [2] it was 0.22 µM; in [3] it was 0.0603 µM; in assay [4], 0.221 µM; in [5], 0.306 µM; in assay [6] it was 0.0807 µM. Besides, the GI50 was 0.138 µM in [7], 0.243 µM in assay [8], 0.453 µM in assay [9] and 0.229 µM in assay [10]. Besides, the TGI in assay [1] is greater than 33.6 µM; in [2], 0.83 µM; in assay [3], 0.424 µM; in [4] it was greater than 100 µM; in assay [5], 4.27 µM; in assay [6], 3.99 µM. The TGI was 0.662 µM in assay [7], 1.54 µM in [8], 13.9 µM in [9] and 0.976 µM in assay [10].
In the case of `Cc1cccc(Cl)c1NC(=O)c1cnc(Nc2cc(N3CCOCC3)cc(S(C)(=O)=O)c2)s1`, the GI50 in assay [1] was 1.2 µM; in assay [2], greater than 2.53 µM; in [3], 0.0294 µM; in assay [4], greater than 9.52 µM; in assay [5], 9.94 µM; in [6], 0.516 µM. Besides, the GI50 was greater than 10 µM in assay [7], greater than 10 µM in assay [8], greater than 4.95 µM in assay [9] and greater than 5.57 µM in assay [10]. Also, the TGI was 5.14 µM in assay [1]; greater than 10 µM in assay [2]; 0.303 µM in assay [3]; greater than 10 µM in [4]; greater than 10 µM in assay [5]; greater than 10 µM in assay [6]. The TGI in assay [7], in assay [8], in assay [9] and in assay [10] was greater than 10 µM in each case.
Turning to `CC1(C)CCC(C)(C)c2cc(NC(=O)c3ccc(C(=O)O)cc3)ccc21`, the TGI is greater than 100 µM in [1]; greater than 60 µM in assay [2]; 64.1 µM in assay [3]; greater than 62.7 µM in assay [4]; greater than 86.1 µM in [5]; greater than 100 µM in assay [6]. The TGI in assay [7] was greater than 100 µM; in assay [8], greater than 60.5 µM; in assay [9] it was 99.3 µM; in [10], greater than 62.5 µM.
In the case of `Nc1nn(C(=O)Nc2c(F)cccc2F)c2ccccc12`, the GI50 in [1] is 62.3 µM; in assay [2], 95.8 µM; in assay [3], 17.3 µM; in [4], 33.4 µM; in assay [5] it was 56.5 µM; in assay [6] it was 44.2 µM. Also, the GI50 was 16.1 µM in assay [7], greater than 100 µM in [8], greater than 100 µM in assay [9] and 96.1 µM in assay [10]. Moreover, the TGI in [1], in [2], in assay [3], in [4], in [5] and in assay [6] was greater than 100 µM in each case. Besides, the TGI in assay [7], in assay [8], in assay [9] and in assay [10] was greater than 100 µM in each case.
As to `O=C1CC(N2C(=O)/C(=C/C(Cl)=C\c3ccc([N+](=O)[O-])cc3)SC2=S)C(=O)N1c1ccc(O)cc1` (stereo not given), the GI50 was 1.72 µM in assay [1]; 1.48 µM in assay [2]; 1.62 µM in assay [3]; 2.55 µM in assay [4]; 2.13 µM in [5]; 2.16 µM in [6]. For the same compound, the GI50 in assay [7] is 0.295 µM; in assay [8], 2.74 µM; in assay [9], 1.34 µM; in [10], 0.597 µM. Besides, the TGI stood at 3.37 µM in assay [1]; 2.92 µM in assay [2]; 3.72 µM in assay [3]; 6.75 µM in assay [4]; 12.1 µM in [5]; 14.2 µM in assay [6]. Also, the TGI in assay [7] came out at 4.36 µM; in assay [8], 7.83 µM; in assay [9], 3.47 µM; in [10] it was 2.21 µM.
For the compound `CN(C)c1ccccc1[CH2][Ga]([Cl])[CH2]c1ccccc1N(C)C`, the GI50 in assay [1] was 1.61 µM; in assay [2], 1.23 µM; in assay [3] it was 0.416 µM; in assay [4], 1.76 µM; in [5], 1.87 µM; in assay [6], 1.47 µM. For the same compound, the GI50 in assay [7] is 0.651 µM; in assay [8], 1.13 µM; in [9] it was 1.44 µM; in assay [10] it was 1.16 µM. Besides, the TGI in assay [1] amounted to 3.2 µM; in assay [2] it was 2.88 µM; in assay [3] it was 1.58 µM; in assay [4], 3.58 µM; in assay [5], 4.22 µM; in [6], 3.23 µM. In addition, the TGI in assay [7] was 3.63 µM; in [8], 2.87 µM; in assay [9], 2.86 µM; in assay [10], 2.41 µM.
